pIC50: −log10 of the molar value.
Key:
Acetylcholinesterase = Acetylcholinesterase (Electrophorus electricus, UniProt O42275); assay: Inhibition of electric eel AChE using acetylthiocholine iodide as substrate preincubated for 15 mins followed by substrate addition by Ellman's method
Cholinesterase = Cholinesterase (Equus caballus, UniProt P81908); assay: Inhibition of horse serum BuChE using butyrylthiocholine iodide as substrate preincubated for 15 mins followed by substrate addition by Ellman's method
Cholinesterase, sequence (P81908 whole entry): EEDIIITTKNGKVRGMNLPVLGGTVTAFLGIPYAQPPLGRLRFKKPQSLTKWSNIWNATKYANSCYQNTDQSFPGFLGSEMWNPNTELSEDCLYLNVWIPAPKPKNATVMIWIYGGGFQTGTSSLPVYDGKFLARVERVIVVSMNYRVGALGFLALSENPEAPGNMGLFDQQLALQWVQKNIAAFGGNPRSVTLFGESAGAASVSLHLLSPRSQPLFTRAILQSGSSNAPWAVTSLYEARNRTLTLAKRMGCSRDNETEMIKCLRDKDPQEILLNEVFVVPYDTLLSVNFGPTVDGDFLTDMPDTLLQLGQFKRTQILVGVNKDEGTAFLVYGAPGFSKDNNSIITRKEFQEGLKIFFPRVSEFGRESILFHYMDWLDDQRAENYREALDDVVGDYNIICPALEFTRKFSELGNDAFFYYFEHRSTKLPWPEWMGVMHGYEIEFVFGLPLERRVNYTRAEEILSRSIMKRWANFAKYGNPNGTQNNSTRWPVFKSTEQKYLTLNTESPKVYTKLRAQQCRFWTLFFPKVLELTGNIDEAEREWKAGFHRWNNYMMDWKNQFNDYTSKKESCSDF

[1] = Cytotoxicity against rat H4IIE cells assessed as cell viability at 1.25 uM after 24 hrs by MTT assay relative to control; format: toxicity; conditions: read-out: Activity
[2] = Cytotoxicity against rat H4IIE cells assessed as cell viability at 0.3 uM after 24 hrs by MTT assay relative to control; format: toxicity; conditions: read-out: Activity
[3] = Cytotoxicity against rat H4IIE cells assessed as cell viability at 0.15 uM after 24 hrs by MTT assay relative to control; format: toxicity; conditions: read-out: Activity
[4] = Cytotoxicity against rat H4IIE cells assessed as cell viability at 10 uM after 24 hrs by MTT assay relative to control; format: toxicity; conditions: read-out: Activity
[5] = Cytotoxicity against rat H4IIE cells assessed as cell viability at 0.07 uM after 24 hrs by MTT assay relative to control; format: toxicity; conditions: read-out: Activity
[6] = Cytotoxicity against rat H4IIE cells assessed as cell viability at 5 uM after 24 hrs by MTT assay relative to control; format: toxicity; conditions: read-out: Activity
[7] = Cytotoxicity against rat H4IIE cells assessed as cell viability at 0.6 uM after 24 hrs by MTT assay relative to control; format: toxicity; conditions: read-out: Activity
[8] = Cytotoxicity against rat H4IIE cells assessed as cell viability at 2.5 uM after 24 hrs by MTT assay relative to control; format: toxicity; conditions: read-out: Activity

Acetylcholinesterase, sequence (O42275 whole entry): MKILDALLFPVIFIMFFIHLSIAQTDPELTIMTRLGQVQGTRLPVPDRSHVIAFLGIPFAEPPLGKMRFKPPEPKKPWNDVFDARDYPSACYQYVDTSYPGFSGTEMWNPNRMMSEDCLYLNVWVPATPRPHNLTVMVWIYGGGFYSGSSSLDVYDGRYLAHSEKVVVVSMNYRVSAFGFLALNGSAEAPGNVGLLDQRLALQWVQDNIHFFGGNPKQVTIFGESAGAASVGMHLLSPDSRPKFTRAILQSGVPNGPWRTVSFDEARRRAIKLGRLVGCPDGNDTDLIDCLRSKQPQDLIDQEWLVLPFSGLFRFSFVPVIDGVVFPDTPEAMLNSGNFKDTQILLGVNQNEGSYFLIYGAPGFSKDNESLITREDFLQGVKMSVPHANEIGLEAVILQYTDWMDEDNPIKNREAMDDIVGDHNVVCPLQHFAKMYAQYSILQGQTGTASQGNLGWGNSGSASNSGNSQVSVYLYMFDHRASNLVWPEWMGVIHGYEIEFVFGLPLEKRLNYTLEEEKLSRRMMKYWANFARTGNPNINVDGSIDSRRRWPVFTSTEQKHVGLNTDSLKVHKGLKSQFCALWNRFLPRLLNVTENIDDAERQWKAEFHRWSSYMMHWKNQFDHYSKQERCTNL

SMILES	pIC50 (Acetylcholinesterase)	pIC50 (Cholinesterase)	also measured
Cc1ccc(C(C)C)c(OC(=O)Nc2ccc(Cl)c(Cl)c2)c1	4.05	5.60	–
Cc1ccc(NC(=O)Oc2cc(C)ccc2C(C)C)cc1	3.64	5.03	–
Cc1ccc(C(C)C)cc1OC(=O)Nc1ccc(Cl)c(Cl)c1	4.06	6.39	–
Cc1ccc(C(C)C)c(OC(=O)Nc2ccc(I)cc2)c1	4.50	5.32	–
COc1ccc(NC(=O)Oc2cc(C)ccc2C(C)C)cc1	–	4.22	–
Cc1ccc(C(C)C)cc1OC(=O)Nc1ccc(F)cc1	5.52	7.70	viability at 24 h, 1.25 µM [1]: 62.2%; viability at 24 h, 0.3 µM [2]: 68.9%; viability at 24 h, 0.15 µM [3]: 69.4%; viability at 24 h, 10 µM [4]: 28.5%; viability at 24 h, 0.07 µM [5]: 92.8%; viability at 24 h, 5 µM [6]: 32.8%; viability at 24 h, 0.6 µM [7]: 65.9%; viability at 24 h, 2.5 µM [8]: 41.6%
Cc1ccc(C(C)C)cc1OC(=O)Nc1ccccc1	5.40	6.26	viability at 24 h, 1.25 µM [1]: 60%; viability at 24 h, 0.3 µM [2]: 90%; viability at 24 h, 0.15 µM [3]: 87.9%; viability at 24 h, 10 µM [4]: 26%; viability at 24 h, 0.07 µM [5]: 93.8%; viability at 24 h, 5 µM [6]: 25.8%; viability at 24 h, 0.6 µM [7]: 82.5%; viability at 24 h, 2.5 µM [8]: 43.3%
Cc1ccc(C(C)C)c(OC(=O)Nc2ccc(Br)cc2)c1	4.01	3.97	–
Cc1ccc(C(C)C)c(OC(=O)Nc2ccc(C(F)(F)F)cc2)c1	4.01	3.83	–
Cc1ccc(C(C)C)cc1OC(=O)Nc1ccc(Br)cc1	3.98	6.82	–
Cc1ccc(C(C)C)c(OC(=O)NCc2ccccc2)c1	3.95	5.84	–
Cc1ccc(C(C)C)cc1OC(=O)Nc1ccc(I)cc1	3.86	6.68	–
Cc1ccc(C(C)C)cc1OC(=O)Nc1ccc(Cl)cc1	3.83	6.89	–
Cc1ccc(C(C)C)c(OC(=O)Nc2cccc([N+](=O)[O-])c2)c1	4.08	5.48	–
Cc1ccc(C(C)C)c(OC(=O)Nc2cccc3ccccc23)c1	3.80	4.02	–
Cc1ccc(C(C)C)cc1O [CARVACROL]	3.54	3.39	–
COc1cccc(NC(=O)Oc2cc(C(C)C)ccc2C)c1	5.65	5.79	–
Cc1ccc(C(C)C)c(OC(=O)Nc2ccc([N+](=O)[O-])cc2)c1	5.60	4.42	viability at 24 h, 1.25 µM [1]: 47.2%; viability at 24 h, 0.3 µM [2]: 54.4%; viability at 24 h, 0.15 µM [3]: 57.8%; viability at 24 h, 10 µM [4]: 26.1%; viability at 24 h, 0.07 µM [5]: 97.8%; viability at 24 h, 5 µM [6]: 32.8%; viability at 24 h, 0.6 µM [7]: 51.7%; viability at 24 h, 2.5 µM [8]: 40%
Cc1ccc(C(C)C)cc1OC(=O)NC1CCCCC1	4.64	5.99	–

SMILES	pIC50 (Acetylcholinesterase)	pIC50 (Cholinesterase)	also measured
Cc1ccc(NC(=O)Oc2cc(C(C)C)ccc2C)cc1	5.21	6.51	–
Cc1ccc(C(C)C)c(OC(=O)Nc2ccc(Cl)cc2)c1	3.64	3.86	–
Cc1ccc(C(C)C)c(OC(=O)NCC2CCCCC2)c1	–	4.43	–
Cc1ccc(C(C)C)cc1OC(=O)NCc1ccccc1	4.11	7.15	–
Cc1ccc(C(C)C)c(OC(=O)Nc2ccc(F)cc2)c1	3.57	3.39	–
Cc1ccc(C(C)C)cc1OC(=O)Nc1cccc([N+](=O)[O-])c1	5.30	6.25	–
Cc1ccc(C(C)C)cc1OC(=O)Nc1cccc2ccccc12	3.90	6.29	–
Cc1ccc(C(C)C)c(OC(=O)NC2CCCC2)c1	3.38	3.78	–
COc1ccc(NC(=O)Oc2cc(C(C)C)ccc2C)cc1	4.26	6.28	–
Cc1ccc(C(C)C)c(OC(=O)Nc2cccc(F)c2)c1	4.05	5.41	–
Cc1ccc(C(C)C)cc1OC(=O)NC1CCCC1	5.47	6.00	viability at 24 h, 1.25 µM [1]: 50.4%; viability at 24 h, 0.3 µM [2]: 71.1%; viability at 24 h, 0.15 µM [3]: 75.6%; viability at 24 h, 10 µM [4]: 37.4%; viability at 24 h, 0.07 µM [5]: 94.4%; viability at 24 h, 5 µM [6]: 38.9%; viability at 24 h, 0.6 µM [7]: 63.3%; viability at 24 h, 2.5 µM [8]: 47.8%
Cc1ccc(C(C)C)c(OC(=O)Nc2ccccc2)c1	3.70	5.30	–
Cc1ccc(C(C)C)cc1OC(=O)NC1CCCCCC1	3.90	3.95	–
Cc1ccc(C(C)C)cc1OC(=O)Nc1ccc([N+](=O)[O-])cc1	3.92	5.98	–
Cc1ccc(C(C)C)cc1OC(=O)NCC1CCCCC1	5.09	6.52	–
Cc1ccc(C(C)C)c(O)c1 [THYMOL]	3.34	3.65	–
COc1cccc(NC(=O)Oc2cc(C)ccc2C(C)C)c1	3.81	5.78	–
Cc1ccc(C(C)C)cc1OC(=O)Nc1cccc(F)c1	5.65	5.99	viability at 24 h, 1.25 µM [1]: 47.8%; viability at 24 h, 0.3 µM [2]: 74.1%; viability at 24 h, 0.15 µM [3]: 90%; viability at 24 h, 10 µM [4]: 28.5%; viability at 24 h, 0.07 µM [5]: 98.1%; viability at 24 h, 5 µM [6]: 37.2%; viability at 24 h, 0.6 µM [7]: 64.4%; viability at 24 h, 2.5 µM [8]: 45.8%
Cc1ccc(C(C)C)cc1OC(=O)Nc1ccc(C(F)(F)F)cc1	4.07	5.91	–

— ChEMBL document CHEMBL3877312, “Synthesis, anticholinesterase activity and molecular modeling study of novel carbamate-substituted thymol/carvacrol derivatives” (Bioorg Med Chem, 2017)
